Results from patent publication US20240285557A1, “PHARMACEUTICAL COMPOSITION COMPRISING LIPASE INHIBITOR FOR TREATMENT OR TREATMENT OF RNA VIRAL INFECTIONS” (priority 2021, published 2024).
“Also recorded” adds a separate entry of the source.

Key:
[1] = system: influenza A virus hemagglutinin (H) and M2 proteins; format: cell-based; details: A549, 20 μM; vs vehicle
[2] = system: Porcine respiratory reproductive syndrome virus (LMY); test: microbe, parasite or virus in culture; details: Porcine reproductive and respiratory syndrome virus, MARC145, in Sus scrofa, 18 h
SARS-COV-2 strain KCDC03 = format: cell-based
[3] = system: spike (S) protein of SARS-COV-2; test: Palmitoylation assay in SARS-CoV-2-infected Vero E6 cells; format: cell-based; details: Vero E6, 20 μM; vs vehicle
Experimental: CO2 incubator. The cells were then washed with phosphate-buffered saline, and DMEM supplemented with 1 μg/ml TPCK-treated trypsin, 100 u/ml penicillin, and 100 ug/ml streptomycin was added. Afterward, the cells were incubated in a 37° C. CO2 incubator for 18 hours. […] Following an additional 18-hour incubation, the cells were washed with phosphate-buffered saline, treated with trypsin, harvested, and centrifuged. The palmitoylation assay (Badrilla, Leeds, UK) was then conducted on these cells according to the manufacturer's instructions.
The cell pellet was washed with phosphate-buffered saline and then mixed with Buffer A containing Thiol Blocking Reagent. The mixture was incubated at 40° C. for 4 hours with continuous stirring. Subsequently, 70% acetone was added to precipitate the proteins, and the supernatant was discarded. The acetone addition process was repeated five times. The pellet was thoroughly washed, followed by elution in a binding buffer at 40° C. for 3 hours. A portion of the eluted supernatant was mixed with Laemmli Sample Buffer and used as an input control for total protein, while the remainder underwent a purification process for palmitoylated proteins.
Initially, the total protein supernatant was mixed with CAPTUREome™ Capture Resin and Thio Cleavage Reagent, and the mixture was incubated on a rotary mixer at 20° C. for 3 hours. […]

[4] = system: Porcine epidemic diarrhea coronavirus (QIAP1401); test: organism not typed; details: Vero C1008, 18 h
[5] = system: influenza A virus PR8 strain; format: cell-based
SARS-COV-2 KCDC03 strain = test: SARS-CoV-2-infected hamsters treated with lipase inhibitor; details: for alleviation (reduction) of pneumonia severity: 80 mg kg^−1 day^−1 intraperitoneally for 4.5 days; for pneumonia severity: 20, 40, 80 mg kg^−1 day^−1, dose-dependent; for production of free fatty acids and glycerol in lung tissue: 20 to 80 mg kg^−1 day^−1; for number of viral genes (viral genome copy number) in lung tissue / progeny viruses in lung tissue: fifth day post-infection; for weight loss: five days observation
[6] = MTT half-maximal cytotoxic concentration (CC50); details: pig
Experimental: (§1) To determine the half-maximal cytotoxic concentration (CC50) of the lipase inhibitors atglistatin and CAY10499, Vero E6, A549, HRT-18G, MA104, MARC-145, and LLC-PK cells were prepared in monolayers in 96-well plates.
(§2) The cells were treated with the drugs for 24 hours, and the culture media was removed before addition of 200 μL of 3-(4,5-dimethylthiazol-2-yl)-2,5-diphenyl tetrazolium bromide (MTT) solution to each well. The plates were then incubated for 4 hours in a 5% CO2 incubator at 36° C. Subsequently, 150 μL of DMSO solution was added to each well and incubated at 20° C. The optical density (OD) was measured at 570 nm wavelength using an enzyme-linked immunosorbent assay (ELISA) reader.

[7] = system: Bovine coronavirus (KWD20); test: microbe, parasite or virus in culture; details: Betacoronavirus 1, 18 h
[8] = system: Porcine sapovirus (Cowden); test: microbe, parasite or virus in culture; details: Sapporo virus, LLCPK, 18 h
[9] = MTT half-maximal cytotoxic concentration (CC50); details: rhesus monkey
Experimental: as §1, §2

[10] = CC50 range over the cell line panel
Experimental: as §1, §2

[11] = system: Influenza A virus (H1N1) (PR8); test: microbe, parasite or virus in culture; details: H1N1|PR8, A549, 12 h, drug added after 12 hours, additional 12 hours
[12] = system: Species A Rotavirus (NCDV); test: microbe, parasite or virus in culture; details: MA104, in Bos taurus, 12 h
Vero E6 cells = test: MTT half-maximal cytotoxic concentration (CC50); details: Vero E6; drugs for 24 hours, MTT
Experimental: as §1, §2

[13] = system: bovine species A rotavirus NCDV strain; test: Viral antigen expression (Western blot, immunofluorescence) in infected MA104 cells; format: cell-based; details: rotavirus VP6 protein, 1, 10, 20 μM
[14] = system: bovine coronavirus KWD20 strain; format: cell-based; details: bovine coronavirus spike protein, HRT-18G; 1, 10, 20 μM
[15] = system: porcine sapovirus Cowden strain; test: Viral antigen expression (Western blot, immunofluorescence) in infected LLC-PK cells; format: cell-based; details: porcine sapovirus VPg protein, 1, 10, 20 μM
[16] = system: porcine epidemic diarrhea coronavirus QIAP1401 strain; test: Viral antigen expression (Western blot, immunofluorescence) in infected Vero E6 cells; format: cell-based; details: PEDV nucleocapsid protein, 1, 10, 20 μM
Experimental: The virus was incubated at 37° C. for 18 hours, after which the medium was changed with a medium containing DABPU-EM or DABPU-DE at a final concentration of 1 μM, […], or 20 μM. Following an additional 18 hours of incubation, the Vero E6 cells in 6-well plates were washed with phosphate-buffered saline, collected by scaping, and centrifuged. The cell pellet thus obtained was subjected to Western blot analysis. The intensity of the porcine epidemic diarrhea coronavirus nucleocapsid protein detected was assessed by comparison with the relative positive signals of the internal control beta-actin using the ImageJ software. Separately, the Vero E6 cells in 8-well chambers were washed with phosphate-buffered saline, fixed with 4% paraformaldehyde, and then subjected to immunofluorescence staining for porcine epidemic diarrhea coronavirus nucleocapsid protein in the same manner as described in the foregoing.

SARS COV-2 KCDC03 strain = format: cell-based; details: SARS-CoV-2 spike protein, Vero E6; 1, 10, 20 μM
[17] = system: influenza A virus PR8 strain; format: cell-based; details: influenza A virus M2 protein, A549; 1, 10, 20 μM
[18] = MTT half-maximal cytotoxic concentration (CC50); details: African green monkey
Experimental: as §1, §2

[19] = listed as atglistatin (DABPU-DM)
[20] = vs untreated virus-inoculated group

Experimental for MARC cells: as §1, §2

Structure (SMILES): CN(C)C(=O)Nc1cccc(-c2ccc(N(C)C)cc2)c1 [Atglistatin, 3-(4′-(dimethylamino)-(1,1′-biphenyl)-3-yl)-1,1-dimethylurea]
- palmitoylation of both hemagglutinin (H) and M2 proteins [1]: significantly decreased
- IC50 [2]: 2.53 µM
- free fatty acids and glycerol in the cytoplasm (SARS-COV-2 strain KCDC03): significant decrease
- number of lipid droplets (SARS-COV-2 strain KCDC03): did not decrease significantly
- progeny virus count (SARS-COV-2 strain KCDC03): significant decrease
- viral gene count (SARS-COV-2 strain KCDC03): significant decrease
- virus spike protein synthesis (SARS-COV-2 strain KCDC03): significant decrease
- palmitoylation of the spike (S) protein of SARS-COV-2 [3]: significantly reduced
- IC50 [4]: 1.96 µM
- levels of free fatty acids and glycerol in the cytoplasm [5]: significant decrease
- number of lipid droplets [5]: did not significantly decrease
- production of virus M2 protein [5]: significant decrease
- progeny virus titer [5]: significant decrease
- viral genome copy [5]: significant decrease
- alleviation (reduction) of pneumonia severity (SARS-COV-2 KCDC03 strain): 73%
- alleviation (reduction) of pneumonia severity (SARS-COV-2 KCDC03 strain; [19]): 70%
- pneumonia severity (SARS-COV-2 KCDC03 strain): alleviating pneumonia severity in a dose-dependent manner
- production of free fatty acids and glycerol in lung tissue (SARS-COV-2 KCDC03 strain): significantly reducing
- production of free fatty acids and glycerol in lung tissue (SARS-COV-2 KCDC03 strain; [19]): decreasing
- number of viral genes (viral genome copy number) in lung tissue (SARS-COV-2 KCDC03 strain): significant decrease
- progeny viruses in lung tissue (SARS-COV-2 KCDC03 strain): significant decrease
- number of viral genes (viral genome copy number) in lung tissue (SARS-COV-2 KCDC03 strain; [19]): significantly reduced
- progeny viruses in lung tissue (SARS-COV-2 KCDC03 strain; [19]): significantly reduced
- weight loss (SARS-COV-2 KCDC03 strain): ceasing weight loss
- weight loss (SARS-COV-2 KCDC03 strain; [19]): blocking weight loss
- level of viral antigens in the alveolar epithelial cells (SARS-COV-2 KCDC03 strain; [20]): significant decrease
- lung lesions, including interstitial pneumonia, and number of virus-positive cells (SARS-COV-2 KCDC03 strain; [20]): alleviating and reducing
- number of lipid droplets in alveolar epithelial cells (SARS-COV-2 KCDC03 strain; [20]): did not decrease significantly
- CC50 at 24 h [6]: 224 µM
- IC50 [7]: 1.2 µM
- IC50 [8]: 3.11 µM
- CC50 at 24 h [9]: 214 µM
- CC50 at 24 h [10]: 182 to 269 µM
- IC50 [11]: 0.82 µM
- IC50 [12]: 6.7 µM

Structure (SMILES): COc1nn(-c2ccc(NC(=O)OCc3ccccc3)c(C)c2)c(=O)o1 [CAY10499]
- palmitoylation of both hemagglutinin (H) and M2 proteins [1]: significantly decreased
- free fatty acids and glycerol in the cytoplasm (SARS-COV-2 strain KCDC03): significant decrease
- number of lipid droplets (SARS-COV-2 strain KCDC03): did not decrease significantly
- progeny virus count (SARS-COV-2 strain KCDC03): significant decrease
- viral gene count (SARS-COV-2 strain KCDC03): significant decrease
- virus spike protein synthesis (SARS-COV-2 strain KCDC03): significant decrease
- palmitoylation of the spike (S) protein of SARS-COV-2 [3]: significantly reduced
- levels of free fatty acids and glycerol in the cytoplasm [5]: significant decrease
- number of lipid droplets [5]: did not significantly decrease
- production of virus M2 protein [5]: significant decrease
- progeny virus titer [5]: significant decrease
- viral genome copy [5]: significant decrease
- CC50 (MARC cells): 101 µM

Structure (SMILES): CCN(CC)C(=O)Nc1cccc(-c2ccc(N(C)C)cc2)c1 [DABPU-DE]
- CC50 (Vero E6 cells): 222 µM
- expression levels of the viral antigen in infected cells [13]: higher inhibitory effects of DABPU-DE than DABPU-EM
- expression levels of the viral antigen in infected cells [14]: higher inhibitory effects of DABPU-DE than DABPU-EM
- expression levels of the viral antigen in infected cells [15]: higher inhibitory effects of DABPU-DE than DABPU-EM
- alleviation (reduction) of pneumonia severity (SARS-COV-2 KCDC03 strain): 75%
- pneumonia severity (SARS-COV-2 KCDC03 strain): alleviating pneumonia severity in a dose-dependent manner
- production of free fatty acids and glycerol in lung tissue (SARS-COV-2 KCDC03 strain): decreasing; also recorded: lower levels
- number of viral genes (viral genome copy number) in lung tissue (SARS-COV-2 KCDC03 strain): significantly reduced
- progeny viruses in lung tissue (SARS-COV-2 KCDC03 strain): significantly reduced
- weight loss (SARS-COV-2 KCDC03 strain): blocking weight loss
- expression levels of the viral antigen in infected cells [16]: higher inhibitory effects of DABPU-DE than DABPU-EM
- expression levels of the viral antigen in infected cells (SARS COV-2 KCDC03 strain): higher inhibitory effects of DABPU-DE than DABPU-EM
- expression levels of the viral antigen in infected cells [17]: higher inhibitory effects of DABPU-DE than DABPU-EM

Structure (SMILES): CCN(C)C(=O)Nc1cccc(-c2ccc(N(C)C)cc2)c1 [DABPU-EM, 3-(4′-(dimethylamino)-(1,1′-biphenyl)-3-yl)-1-ethyl-1-methylurea]
- CC50 at 24 h [18]: 210 µM
- expression levels of the viral antigen in infected cells [13]: inhibitory activity
- IC50 [2]: 2.7 µM
- IC50 [4]: 1.94 µM
- expression levels of the viral antigen in infected cells [14]: inhibitory activity
- expression levels of the viral antigen in infected cells [15]: inhibitory activity
- CC50 at 24 h [6]: 231 µM
- IC50 [7]: 3.44 µM
- IC50 [8]: 3.7 µM
- CC50 at 24 h [9]: 223 µM
- CC50 at 24 h ([10]; human, African green monkey, dog, pig): 186 to 231 µM
- expression levels of the viral antigen in infected cells [16]: inhibitory activity
- expression levels of the viral antigen in infected cells (SARS COV-2 KCDC03 strain): inhibitory activity
- IC50 [11]: 1.63 µM
- expression levels of the viral antigen in infected cells [17]: inhibitory activity
- IC50 [12]: 7.08 µM
